{
  "source": "ChEMBL document CHEMBL6182858",
  "about": "“Dichloromethyl-Containing Derivatives from Streptomyces agglomeratus 5-2-6, a Soil Bacterium Isolated from the Qinghai-Tibet Plateau” (J Nat Prod, 2025)",
  "data": [
    {"tested_on": "Bacillus thuringiensis", "assay": "Antibacterial activity against Bacillus thuringiensis assessed as inhibition of bacterial growth by agar plate method; call rule not given here", "assay_type": "functional, organism-based", "values": [
      {"compound": "CC/C=C(\\C)[C@@H](O)[C@@H](O)c1cc(C(Cl)Cl)cc(=O)o1", "Activity": "Not active; Detectable Activity Not Observed"},
      {"compound": "O=c1cc(C(Cl)Cl)cc(CO)o1", "Activity": "Not active; Detectable Activity Not Observed"},
      {"compound": "CC[C@@H](O)[C@@](C)(O)/C=C/C=C\\[C@H](O)C(Cl)Cl", "Activity": "Not active; Detectable Activity Not Observed"},
      {"compound": "CC[C@H](O)/C(C)=C/[C@@H](O)c1cc(C(Cl)Cl)cc(=O)o1", "Activity": "Not active; Detectable Activity Not Observed"},
      {"compound": "CC/C=C(\\C)[C@@H](O)[C@@H](O)C1=CC(=O)/C(=C\\C(Cl)Cl)O1", "Activity": "Moderate_effect"},
      {"compound": "CC[C@@H](O)[C@](C)(O)/C=C/C=C\\[C@H](O)C(Cl)Cl", "Activity": "Not active; Detectable Activity Not Observed"},
      {"compound": "CC[C@@H](O)/C(C)=C/[C@@H](O)c1cc(C(Cl)Cl)cc(=O)o1", "Activity": "Not active; Detectable Activity Not Observed"},
      {"compound": "CC/C=C(\\C)[C@@H](O)[C@@H](O)C1=CC(=O)/C(=C/C(Cl)Cl)O1", "Activity": "Moderate_effect"}
    ]}
  ]
}
